Reference: ChEMBL document CHEMBL1697781, “Assessment of the health effects of chemicals in humans: II. Construction of an adverse effects database for QSAR modeling” (Curr Drug Discov Technol, 2004)

What was measured:
Details in all cases: human
[1] = test system: Hepatotoxicity; assay: FDA HLAED, lactate dehydrogenase (LDH) increase
[2] = test system: Hepatotoxicity; assay: FDA HLAED, liver enzyme composite activity
[3] = test system: Hepatotoxicity; assay: FDA HLAED, gamma-glutamyl transferase (GGT) increase
[4] = test system: Hepatotoxicity; assay: FDA HLAED, serum glutamic oxaloacetic transaminase (SGOT) increase
[5] = test system: Hepatotoxicity; assay: FDA HLAED, alkaline phosphatase increase
[6] = test system: Hepatotoxicity; assay: FDA HLAED, serum glutamic pyruvic transaminase (SGPT) increase

## CCC1=C(C)CN(C(=O)NCCc2ccc(S(=O)(=O)NC(=O)N[C@H]3CC[C@H](C)CC3)cc2)C1=O [GLIMEPIRIDE]
[1]
  LDH Increase - Activity Score: Inactive
  LDH Increase - Index Value: 0
  LDH Increase - Number of Reports: < 4
[2]
  Composite Activity - Active: 0
  Composite Activity - Marginal: 0
  Composite Activity - Score: Inactive
[3]
  GGT Increase - Activity Score: Inactive
  GGT Increase - Index Value: 1.2
  GGT Increase - Number of Reports: < 4
[4]
  SGOT Increase - Activity Score: Inactive
  SGOT Increase - Index Value: 1.2
  SGOT Increase - Number of Reports: < 4
[5]
  Alkaline Phosphatase Increase - Activity Score: Inactive
  Alkaline Phosphatase Increase - Index Value: 1.2
  Alkaline Phosphatase Increase - Number of Reports: < 4
[6]
  SGPT Increase - Activity Score: Inactive
  SGPT Increase - Index Value: 1.2
  SGPT Increase - Number of Reports: < 4

## CC(C)NCC(O)c1ccc(NS(C)(=O)=O)cc1 (configuration not stated) [SOTALOL]
[1]
  LDH Increase - Activity Score: Inactive
  LDH Increase - Index Value: 1
  LDH Increase - Number of Reports: < 4
[2]
  Composite Activity - Active: 0
  Composite Activity - Marginal: 0
  Composite Activity - Score: Inactive
[3]
  GGT Increase - Activity Score: Inactive
  GGT Increase - Index Value: 1
  GGT Increase - Number of Reports: < 4
[4]
  SGOT Increase - Activity Score: Inactive
  SGOT Increase - Index Value: 3
  SGOT Increase - Number of Reports: < 4
[5]
  Alkaline Phosphatase Increase - Activity Score: Inactive
  Alkaline Phosphatase Increase - Index Value: 1
  Alkaline Phosphatase Increase - Number of Reports: < 4
[6]
  SGPT Increase - Activity Score: Inactive
  SGPT Increase - Index Value: 0
  SGPT Increase - Number of Reports: < 4

## COc1cc([C@@H]2c3cc4c(cc3[C@@H](O[C@@H]3O[C@@H]5CO[C@@H](C)O[C@H]5[C@H](O)[C@H]3O)[C@H]3COC(=O)[C@H]23)OCO4)cc(OC)c1O [ETOPOSIDE]
[1]
  LDH Increase - Activity Score: Inactive
  LDH Increase - Index Value: 0.4
  LDH Increase - Number of Reports: < 4
[2]; Liver
  Composite Activity - Active: 0
  Composite Activity - Marginal: 0
  Composite Activity - Score: Inactive
[3]
  GGT Increase - Activity Score: Inactive
  GGT Increase - Index Value: 0
  GGT Increase - Number of Reports: < 4
[4]
  SGOT Increase - Activity Score: Inactive
  SGOT Increase - Index Value: 0.4
  SGOT Increase - Number of Reports: < 4
[5]
  Alkaline Phosphatase Increase - Activity Score: Inactive
  Alkaline Phosphatase Increase - Index Value: 0.8
  Alkaline Phosphatase Increase - Number of Reports: < 4
[6]
  SGPT Increase - Activity Score: Inactive
  SGPT Increase - Index Value: 0
  SGPT Increase - Number of Reports: < 4

## CCCCCCCN(CC)CCCC(O)c1ccc(NS(C)(=O)=O)cc1 (configuration not stated) [IBUTILIDE]
[1]
  LDH Increase - Activity Score: Inactive
  LDH Increase - Index Value: 0
  LDH Increase - Number of Reports: < 4
[2]
  Composite Activity - Active: 0
  Composite Activity - Marginal: 0
  Composite Activity - Score: Inactive
[3]
  GGT Increase - Activity Score: Inactive
  GGT Increase - Index Value: 0
  GGT Increase - Number of Reports: < 4
[4]
  SGOT Increase - Activity Score: Inactive
  SGOT Increase - Index Value: 0
  SGOT Increase - Number of Reports: < 4
[5]
  Alkaline Phosphatase Increase - Activity Score: Inactive
  Alkaline Phosphatase Increase - Index Value: 0
  Alkaline Phosphatase Increase - Number of Reports: < 4
[6]
  SGPT Increase - Activity Score: Inactive
  SGPT Increase - Index Value: 0
  SGPT Increase - Number of Reports: < 4
